In patent publication US6242442A (Alcon Laboratories, Inc., priority 2000, dated 2001):
Like-named read-outs stand apart in the source and are kept apart here.

Key:
[1] = system: ocular and cerebral blood flow; details: oral and i.v. administration, relatively high dosages; cited from earlier work
[2] = in words; cited from earlier work
[3] = system: scleral vessels; vessels in the back of the eye; details: topical ocular administration; cited from earlier work
α2 = details: cited from earlier work
[4] = topical, some patients; cited from earlier work
IOP = details: rabbits, monkeys and man; cited from earlier work
ocular tissues = test: Ocular blood flow by colored microsphere technique in anesthetized rabbits, intravenous; type: in vivo, New Zealand albino rabbits; details: for increase in total ocular blood flow, hypofused eyes: unilateral carotid occlusion
Excerpt: (§1) In this experiment it was also possible to compare blood flows of the normal eye to the contralateral eye that was mildly hypofused due to unilateral carotid occlusion.

[5] = Acid-base balance and arterial gases, one-week multidose topical crossover study in rabbits; type: in vivo, Dutch-Belted rabbits; details: 2% suspension topical, one drop twice daily
Procedure: (§2) Treatment measurements were made 90 minutes after the last dose on day eight. Optic nerve head blood flow and measured systemic variables were not changed by vehicle treatment. […] It is established that the vasculature of the ONH responds to increases in arterial O2 or CO2 tension by a reduction or an enhancement of ONH blood flow respectively.

optic nerve head (ONH) [6] = test: Optic nerve head blood flow by laser Doppler flowmetry in cats; type: in vivo, cat
optic nerve head (ONH) [7] = test: Optic nerve head blood flow by LDF, one-week multidose topical crossover study in rabbits; type: in vivo, Dutch-Belted rabbits; details: 2% suspension topical, one drop twice daily, 90 minutes after last dose, mean±SEM, p<0.05
Procedure: as §2

retina [8] = test: Tissue distribution after single topical ocular dose of 14C-brinzolamide, NZW rabbits; type: in vivo, New Zealand Albino (NZW) rabbits
optic nerve head = test: Optic nerve head blood flow by LDF in anesthetized rabbits, intravenous; type: in vivo, New Zealand albino rabbits; details: intravenous 0.5, 2.5, and 5 mg/kg
Excerpt: as §1

retina [9] = test: Tissue distribution after single topical ocular dose of 14C-brinzolamide, Dutch belted rabbits; type: in vivo
[10] = Distribution coefficient (octanol/water determined at pH 7.4); type: physicochemical
intraocular pressure = details: ocular hypertension and glaucoma; cited from earlier work
[11] = system: intraocular pressure (IOP); test: Intraocular pressure, one-week multidose topical crossover study in rabbits; type: in vivo, Dutch-Belted rabbits; details: 2% suspension topical, one drop twice daily, 90 minutes after last dose, p<0.05 versus vehicle, p<0.001 versus baseline
Procedure: as §2

[12] = system: blood flow to the iris, ciliary processes, optic nerve, or retina; details: topical, rabbits; Sugrue et al. 1996; cited from earlier work
ocular blood flow [13] = details: cited from earlier work
ocular blood flow [14] = details: cited from earlier work; remark: listed apart in the source
[15] = octanol/water, pH 7.4; in words; cited from earlier work
[16] = retina, single topical ocular dose of 1% 14C-brinzolamide
[17] = read-out: distribution coefficient (converted)

CC(=O)Nc1nnc(S(N)(=O)=O)s1 [acetazolamide]
ocular and cerebral blood flow [1]: increase both ocular and cerebral blood flow
half-life in whole blood [2]: relatively short half-lives in whole blood

Brc1c(NC2=NCCN2)ccc2nccnc12 [brimonidine, (5-bromo-6-2-imidzolidisnylideneamino) quinozoline L-tartrate]
vasoconstriction in scleral vessels [3]: causes vasoconstriction in scieral vessels
vasoconstriction in vessels in the back of the eye [3]: does not appear to be a vasoconstrictor in vessels in the back of the eye
α2 agonist activity and selectivity (α2): potent and relatively selective α2 agonist
side effects [4]: sedation and ocular hyperemia in an allergic like reaction in some patients
lowering of IOP (IOP): effectively lower IOP in rabbits, monkeys and man

CCN[C@H]1CN(CCCOC)S(=O)(=O)c2sc(S(N)(=O)=O)cc21 [brinzolamide, R-(+)-4ethylamino-3,4-dihydro-2-(3-methoxy)propyl-2H thieno[3,2,e]1,2thiazene-6sulfonamide-1,1dioxide]
regional blood flows to the hypofused eye (ocular tissues; highest intravenous dose): returned regional blood flows to the hypofused eye to baseline levels found in the normal eye
tissues with greatest percentage blood flow increase, hypofused eye (ocular tissues; intravenous): greatest to iridial, ciliary, and choroidal tissues, respectively
increase in total ocular blood flow, normal eyes (ocular tissues; intravenous 0.5 mg/kg): 29%
increase in total ocular blood flow, hypofused eyes (ocular tissues; intravenous 0.5 mg/kg): 21%
increase in total ocular blood flow, normal eyes (ocular tissues; intravenous 2.5 mg/kg): 68%
increase in total ocular blood flow, hypofused eyes (ocular tissues; intravenous 2.5 mg/kg): 64%
increase in total ocular blood flow, normal eyes (ocular tissues; intravenous 5 mg/kg): 90%
increase in total ocular blood flow, hypofused eyes (ocular tissues; intravenous 5 mg/kg): 90%
total ocular blood flow (ocular tissues; intravenous 0.5, 2.5, and 5 mg/kg): significant dose-related increase
disturbance of acid-base balance [5]: Minimal disturbance of acid-base balance
increase in ONH blood flow over control group (optic nerve head (ONH) [6]; 1% topical, one drop twice a day, one week, spontaneously breathing cats, average of two measurements): 21.8%
increase in ONH blood flow (optic nerve head (ONH) [6]; 60 minutes following single topical dose, anesthetized ventilated cats): 16.5%±8%
increase in ONH blood flow (optic nerve head (ONH) [6]; intravenous, p≤0.05): 46±17%
increase in ONH blood flow (optic nerve head (ONH) [7]): 11.2±1.6%
Cmax (retina [8]; [16]): 0.330 ?g equivalents/g
Tmax in the retina (retina [8]; single topical ocular dose of 1% 14C-brinzolamide): 20 days
redistribution into the retina (retina [8]; topical ocular): slowly redistribute into the retina
optic nerve head blood flow (optic nerve head): increased above baseline
Cmax (retina [9]; [16]): 0.338 ?g equivalents/g
redistribution into the retina (retina [9]; topical ocular): slowly redistribute into the retina
logD [10, 17]: 0.817
lowering of elevated intraocular pressure (intraocular pressure): effective in lowering the elevated intraocular pressure
decrease of IOP [11]: 16.8±2.2%

CCN[C@H]1C[C@H](C)S(=O)(=O)c2sc(S(N)(=O)=O)cc21 [dorzolamide]
blood flow to the iris, ciliary processes, optic nerve, or retina [12]: does not decrease blood flow
artereovenous passage time (ocular blood flow [13]; healthy subjects, WO 96/37203): accelerated artereovenous passage time
optic nerve head velocity (ocular blood flow [13]; healthy subjects, WO 96/37203): increase in optic nerve head velocity
retinal vein blood flow (ocular blood flow [13]; normal volunteers, Gruenwald et al. 1997): no effect on retinal vein blood flow
optic nerve head blood flow (ocular blood flow [13]; topical, healthy subjects, Pillunat et al. 1997): did not alter optic nerve head blood flow
logD [10, 17]: 0.236
blood velocity in the retina and superficial optic nerve head (ocular blood flow [14]; Harris et al. 1996): accelerated blood velocity in the retina and superficial optic nerve head
choroidal pressure flow relationships (ocular blood flow [14]; Shipman et al. 1997): did not alter the choroidal pressure flow relationships
peripapillary blood flow (ocular blood flow [14]; topical, Koller et al. 1997): did not change peripapillary blood flow
ocular blood flow (ocular blood flow [14]; topical, Sponsel 1996, 1997): positive effect on ocular blood flow

CC(=O)/N=c1/sc(S(N)(=O)=O)nn1C [methazolamide]
ocular and cerebral blood flow [1]: increase both ocular and cerebral blood flow
distribution coefficient [15]: low distribution coefficients
logD [10]: -0.194
half-life in whole blood [2]: relatively short half-lives in whole blood
